pEC50, pIC50: −log10 of the molar value. Where two headings read alike, the source gives them in different places.
Columns and labels:
HCV genotype 1b replicon = assay: HCV replicon assay (luciferase reporter); format: cell-based; settings: Zluc cells, 72 hours of incubation
Experimental: Huh-7-derived cell line (Zluc) that harbors an HCV genotype 1b replicon and a luciferase reporter gene was grown in Dulbecco's Modified Eagle Medium (DMEM) supplemented with 10% fetal bovine serum, 2 mM GlutaMAX, 1% MEM nonessential amino acids, 100 IU/mL penicillin, 100 μg/mL streptomycin, and 0.5 mg/mL Geneticin® (G418). For dose response testing the cells were seeded in 96-well plates at 7.5×10^3 cells per well in a volume of 50 μL, and incubated at 37° C./5% CO2. Drug solutions were made up freshly in Huh-7 media as 2× stocks. Ten additional 5-fold dilutions were prepared from these stocks in DMEM without G418. At least three hours after Zluc cells were seeded, drug treatment was initiated by adding 50 μL of drug dilutions to the plates in duplicate. Final concentrations of drug ranged from 100 μM to 0.0000512 μM. Cells were then incubated at 37° C./5% CO2. […] After 72 hours of incubation, the inhibition of HCV replication was measured by quantification of photons emitted after mono-oxygenation of 5′-fluoroluciferin to oxyfluoroluciferin by firefly luciferase. For this, media was removed from the plates via gentle tapping. Fifty microliters of ONE-glo luciferase assay reagent was added to each well. The plates were shaken gently for 3 min at room temperature and luminescence was measured on a Victor^3 V 1420 multilabel counter (Perkin Elmer) with a 1 second read time using a 700 nm cut-off filter. The EC50 values were calculated from dose response curves from the resulting best-fit equations determined by Microsoft Excel and XLfit 5.2 software.
Compounds presented in Table 1 below were assayed according to the replicon assay described herein.

[1] = Cytotoxicity evaluation, CellTiter-Blue Cell Viability Assay; format: cell-based; settings: human
Experimental: (§1) For cytotoxicity evaluation, Zluc cells were treated with compound as described herein, and cell viability was monitored using the CellTiter-Blue Cell Viability Assay (Promega) by adding 20 μL of the assay solution to each well. The plates were then incubated at 37° C./5% CO2 for at least 3 hours. Fluorescence was detected in plates using excitation and emission wavelengths of 531 and 595 nm, respectively, in a Victor^3 V 1420 multilabel counter (Perkin Elmer) and CC50 values were determined using Microsoft Excel and XLfit 5.2 software.

[2] = system: Zluc cells (Huh-7-derived cell line); assay: as above; format: cell-based; settings: read-out: HCV Replicon CC50
Experimental: as §1

[3] = Pharmacokinetics of liver triphosphate following a single oral dose in CD-1 mice; format: in vivo; settings: CD-1 male mice, single oral dose 10 mg/kg in PEG 200, liver triphosphate at 4, 12 and 24 hours, AUC given at 1 μmol/kg
Experimental: A single oral dose of test compound at 10 mg/kg in PEG 200 (dose volume 5 mL/kg) was administered to nine CD-1 male mice. Five untreated animals were used for the collection of control plasma and liver. Terminal plasma and liver samples were collected from three animals per time point at 4, 12 and 24 hours post dose. Liver specimens were collected from all animals immediately after the incision. Freezing forceps stored in liquid nitrogen were used to freeze the liver before excision.
Liver samples were analyzed for the active species nucleoside triphosphate by LC-MS/MS. The triphosphate levels were assayed by homogenizing (on ice) a known weight of mouse liver with 4× volume of 0.95 M trichloroacetic acid (TCA). Internal standard solution was added to the homogenate followed by neutralization with 20% ammonium hydroxide solution and addition of 500 μL 1% formic acid. The tissue samples were extracted by weak anion exchange solid phase extraction (SPE). Post extraction, the eluates were evaporated under nitrogen, followed by reconstitution before injection onto the LC-MS/MS system. […] The analyte was detected and quantified by tandem mass spectrometry in positive ion mode on an API4000 equipped with a Turbo Ionspray® interface.

[4] = target: T1, wild-type HCV genotype 1b NS5B protein (HCV polymerase) (Hepatitis C virus genotype 1b, UniProt Q9WMX2); assay: HCV polymerase enzyme assay, wild-type; format: biochemical
T1 construct: HCV genotype 1b NS5B protein were used to generate recombinant HCV polymerases (with a deletion of the 21 carboxy terminal amino acids); made in house
Excerpt: (§2) Test compounds in the form of nucleoside triphosphates were examined for inhibitory activity against purified HCV polymerase in a standard assay. Bacterial expression constructs encoding the approximately 65 kDa HCV genotype 1b NS5B protein were used to generate recombinant HCV polymerases (with a deletion of the 21 carboxy terminal amino acids). Both the wild-type genotype 1b protein and protein containing the S282T mutation were expressed and purified for use in the enzymatic activity assay.
(§3) The enzymatic activity assay measured the inhibitory effect of increasing concentrations of test compound on the incorporation of α-[^33P]-labeled nucleotide into trichloroacetic acid-precipitable material. Recombinant polymerase and synthetic RNA template were combined in reaction buffer containing ribonucleoside triphosphates, α-[^33P]-labeled nucleotide and eight concentrations of test compound in three-fold dilutions. Reactions were incubated for two hours at 30° C.
(§4) Reactions were terminated by the addition of ice-cold trichloroacetic acid and sodium pyrophosphate to promote precipitation of newly-synthesized ribonucleic acid. Precipitable material from the reactions was collected by filtration onto 96-well filter plates, washed extensively with water, and quantified by liquid scintillation.
(§5) The inhibitory activity of test compounds was determined by fitting results to dose-response curves using XLfit software.

[5] = target: T2, HCV genotype 1b NS5B protein containing the S282T mutation (Hepatitis C virus genotype 1b, UniProt Q9WMX2, S2701T); assay: HCV polymerase enzyme assay, S282T mutant; format: biochemical
T2 construct: HCV genotype 1b NS5B protein were used to generate recombinant HCV polymerases (with a deletion of the 21 carboxy terminal amino acids); made in house
Excerpt: as §2, §3, §4, §5

[6] = Zluc cells (Huh-7-derived HCV replicon cell line)
[7] = Zluc cells, read-out: HCV Replicon CC50

SMILES	pEC50 (HCV genotype 1b replicon; Hepatitis C virus, 72 h)	CC50 [1, 6]	also measured
CC(C)OC(=O)[C@H](C)N[P@](=O)(OCCSC(=O)C(C)(C)C)OC[C@H]1O[C@@H](n2ccc(N)nc2=O)[C@@](F)(Cl)[C@@H]1O (mixture of isomers) [102b (Diast. Mix)]	< 5.00	> 50 µM	–
CC(C)OC(=O)[C@@H](C)NP(=O)(OC[C@H]1C[C@@H](n2ccc(N)nc2=O)C(Cl)(Cl)[C@@H]1O)Oc1ccccc1 (mixture of isomers) [103a (Diast. Mix)]	5.00 to 6.00	–	CC50 [1, 7]: > 50 µM
CC(C)OC(=O)[C@@H](C)NP(=O)(OC[C@H]1O[C@@H](n2cnc3c(=O)[nH]c(N)nc32)[C@@](F)(Cl)[C@@H]1O)Oc1ccccc1 (mixture of isomers) [147a (Diast. Mix)]	< 5.00	–	CC50 [1, 7]: > 50 µM
CC(C)OC(=O)[C@H](C)N[P@](=O)(OCCSC(=O)C(C)(C)C)OC[C@H]1O[C@@H](n2ccc(N)nc2=O)C(Cl)(Cl)[C@@H]1O (single isomer, unassigned) [101b (Diast. 1)]	5.00 to 6.00	> 50 µM	–
CC(C)OC(=O)[C@H](C)N[P@](=O)(OCCSC(=O)C(C)(C)C)OC[C@H]1O[C@@H](n2ccc(N)nc2=O)C(Cl)(Cl)[C@@H]1O (single isomer, unassigned) [101b (Diast. 2)]	–	–	pEC50 (HCV genotype 1b replicon): 5.00 to 6.00; CC50 [2]: > 50 µM
CC(C)OC(=O)[C@H](C)N[P@](=O)(OCCSC(=O)C(C)(C)C)OC[C@H]1O[C@@H](n2ccc(N)nc2=O)[C@@](F)(Cl)[C@@H]1O (single isomer, unassigned) [102b (Diast. 1)]	< 5.00	> 50 µM	–
CC(C)OC(=O)[C@H](C)N[P@](=O)(OCCSC(=O)C(C)(C)C)OC[C@H]1O[C@@H](n2ccc(N)nc2=O)[C@@](F)(Cl)[C@@H]1O (single isomer, unassigned) [102b (Diast. 2)]	–	–	pEC50 (HCV genotype 1b replicon): < 5.00; CC50 [2]: > 50 µM
CC(C)OC(=O)[C@@H](C)NP(=O)(OC[C@H]1C[C@@H](n2ccc(N)nc2=O)C(Cl)(Cl)[C@@H]1O)Oc1ccccc1 (single isomer, unassigned) [103a (Diast. 1)]	< 5.00	–	CC50 [1, 7]: > 50 µM
CC(C)OC(=O)[C@@H](C)NP(=O)(OC[C@H]1C[C@@H](n2ccc(N)nc2=O)C(Cl)(Cl)[C@@H]1O)Oc1ccccc1 (single isomer, unassigned) [103a (Diast. 2)]	–	–	pEC50 (HCV genotype 1b replicon): < 5.00
CC(C)OP1(=O)OC[C@H]2O[C@@H](n3ccc(N)nc3=O)C(Cl)(Cl)[C@@H]2O1 (single isomer, unassigned) [104 (Diast. 1)]	–	> 50 µM	pEC50 (HCV genotype 1b replicon): 5.00 to 6.00; Ms Liver TP AUC ([3]; listed as 104 Diast. 1, 10 mg/kg): ++++ (2000 < ++++)
CC(C)OP1(=O)OC[C@H]2O[C@@H](n3ccc(N)nc3=O)C(Cl)(Cl)[C@@H]2O1 (single isomer, unassigned) [104 (Diast. 2)]	–	–	pEC50 (HCV genotype 1b replicon): < 5.00; CC50 [2]: > 50 µM; Ms Liver TP AUC ([3]; listed as 104 Diast. 2, 10 mg/kg): +++ (+++ ≦ 2000)
CC(C)OC(=O)[C@H](C)NP(=O)(OCCSC(=O)C(C)(C)C)OC[C@H]1O[C@@H](n2cnc3c(N)ncnc32)C(Cl)(Cl)[C@@H]1O (single isomer, unassigned) [117b (Diast. 1)]	6.00 to 6.60	≤ 50 µM	–
CC(C)OC(=O)[C@H](C)NP(=O)(OCCSC(=O)C(C)(C)C)OC[C@H]1O[C@@H](n2cnc3c(N)ncnc32)C(Cl)(Cl)[C@@H]1O (single isomer, unassigned) [117b (Diast. 2)]	–	–	pEC50 (HCV genotype 1b replicon): 6.00 to 6.60; CC50 [2]: ≤ 50 µM
Nc1ccn([C@@H]2O[C@H](CO)[C@@H](O)C2(Cl)Cl)c(=O)n1 [Compound 1001]	< 5.00	> 50 µM	–
O=c1ccn([C@@H]2O[C@H](CO)[C@@H](O)C2(Cl)Cl)c(=O)[nH]1 [Compound 1002]	< 5.00	> 50 µM	–
Nc1ccn([C@@H]2O[C@H](CO)[C@@H](O)[C@]2(F)Cl)c(=O)n1 [Compound 1004]	5.00 to 6.00	> 50 µM	–
Nc1nc2c(ncn2[C@@H]2O[C@H](CO)[C@@H](O)[C@]2(F)Cl)c(=O)[nH]1 [Compound 1005]	< 5.00	> 50 µM	–
O=c1ccn([C@@H]2O[C@H](CO)[C@@H](O)[C@]2(F)Cl)c(=O)[nH]1 [Compound 1006]	< 5.00	> 50 µM	–
O=c1ccn([C@@H]2O[C@H](CO)[C@@H](O)[C@@]2(F)Cl)c(=O)[nH]1 [Compound 1007]	< 5.00	> 50 µM	–
Nc1ncnc2c1ncn2[C@@H]1O[C@H](CO)[C@@H](O)C1(Cl)Cl [Compound 1011]	< 5.00	> 50 µM	–
Nc1ccn([C@@H]2O[C@H](COP(=O)(O)OP(=O)(O)OP(=O)(O)O)[C@@H](O)C2(Cl)Cl)c(=O)n1 [Compound 2001]	–	–	pIC50 [4]: > 6.60; pIC50 [5]: 6.00 to 6.60
O=c1ccn([C@@H]2O[C@H](COP(=O)(O)OP(=O)(O)OP(=O)(O)O)[C@@H](O)C2(Cl)Cl)c(=O)[nH]1 [Compound 2002]	–	–	pIC50 [4]: > 6.60; pIC50 [5]: 5.00 to 6.00
Nc1nc2c(ncn2[C@@H]2O[C@H](COP(=O)(O)OP(=O)(O)OP(=O)(O)O)[C@@H](O)[C@]2(F)Cl)c(=O)[nH]1 [Compound 2003]	–	–	pIC50 [4]: > 6.60; pIC50 [5]: > 6.60
O=c1ccn([C@@H]2O[C@H](COP(=O)(O)OP(=O)(O)OP(=O)(O)O)[C@@H](O)[C@]2(F)Cl)c(=O)[nH]1 [Compound 2004]	–	–	pIC50 [4]: > 6.60; pIC50 [5]: 5.00 to 6.00
O=c1ccn([C@@H]2O[C@H](COP(=O)(O)OP(=O)(O)OP(=O)(O)O)[C@@H](O)[C@@]2(F)Cl)c(=O)[nH]1 [Compound 2005]	–	–	pIC50 [4]: > 6.60; pIC50 [5]: 5.00 to 6.00
Nc1ncnc2c1ncn2[C@@H]1O[C@H](COP(=O)(O)OP(=O)(O)OP(=O)(O)O)[C@@H](O)C1(Cl)Cl [Compound 2011]	–	–	pIC50 [4]: 6.00 to 6.60
